Assay results from ChEMBL document CHEMBL1201862, “PubChem BioAssay data set” (2004).
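1) Cells in 96-well plates. 2) Compound, 48 h, 5 concentrations. 3) Linear interpolation between surrounding doses. 4) Unreached endpoint = highest concentration. GI50: concentration for 50% inhibition of growth.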 Calls of active or inactive are those of the source. Cut-off read from the data, not from the text of the source: active = GI50 up to about 1.1 µM and inactive = higher.

Columns and labels:
Assay in all cases: NCI anticancer screen, dose series, 48 h
786-0 = tested on: 786-0
A549 = tested on: A549
DU-145 = tested on: DU-145
HL-60 = tested on: HL-60
HOP-62 = tested on: HOP-62
K562 = tested on: K562
KM12 = tested on: KM12
MCF7 = tested on: MCF7
NCI-H226 = tested on: NCI-H226
OVCAR-5 = tested on: OVCAR-5
RPMI-8226 = tested on: RPMI-8226
SF-295 = tested on: SF-295
SK-MEL-5 = tested on: SK-MEL-5
SR = tested on: SR
T47D = tested on: T47D
U-251 = tested on: U-251
UACC-257 = tested on: UACC-257
SNB-75 = tested on: SNB-75
SK-MEL-2 = tested on: SK-MEL-2
SK-OV-3 = tested on: SK-OV-3

| Compound | GI50 (786-0) | GI50 (A549) | GI50 (DU-145) | GI50 (HL-60) | GI50 (HOP-62) | GI50 (K562) | GI50 (KM12) | GI50 (MCF7) | GI50 (NCI-H226) | GI50 (OVCAR-5) | GI50 (RPMI-8226) | GI50 (SF-295) | GI50 (SK-MEL-5) | GI50 (SR) | GI50 (T47D) | GI50 (U-251) | GI50 (UACC-257) | GI50 (SNB-75) | GI50 (SK-MEL-2) | GI50 (SK-OV-3) |
| --- | --- | --- | --- | --- | --- | --- | --- | --- | --- | --- | --- | --- | --- | --- | --- | --- | --- | --- | --- | --- |
| C=C1C(=O)O[C@H]2C/C(C=O)=C\[C@H]3O[C@H]3/C(COC(=O)C(C)C)=C/CC12 (stereo not given in full) | 2.9 µM (inactive) | 16.9 µM (inactive) | 11.1 µM (inactive) | 2.11 µM (inactive) | 13.6 µM (inactive) | 2.9 µM (inactive) | 5.46 µM (inactive) | 5.21 µM (inactive) | 21.4 µM (inactive) | 2.01 µM (inactive) | 2.52 µM (inactive) | 25.6 µM (inactive) | 9.42 µM (inactive) | 2.3 µM (inactive) | 3.54 µM (inactive) | 7.26 µM (inactive) | 11.1 µM (inactive) | – | – | – |
| O=C(NC1C(=O)NC(CCc2ccccc2)NC1=O)OCc1ccccc1 (stereo not given) | > 100 µM (inactive) | > 100 µM (inactive) | > 100 µM (inactive) | > 100 µM (inactive) | > 100 µM (inactive) | > 100 µM (inactive) | > 100 µM (inactive) | > 100 µM (inactive) | > 100 µM (inactive) | > 100 µM (inactive) | > 100 µM (inactive) | > 100 µM (inactive) | > 100 µM (inactive) | > 100 µM (inactive) | > 100 µM (inactive) | > 100 µM (inactive) | > 100 µM (inactive) | > 100 µM (inactive) | – | – |
| Cc1ccc(S(=O)(=O)N2CCCN(S(=O)(=O)c3ccc(C)cc3)CC2)cc1 | – | > 10 µM (inactive) | > 100 µM (inactive) | – | – | > 100 µM (inactive) | > 100 µM (inactive) | > 100 µM (inactive) | > 100 µM (inactive) | – | – | > 100 µM (inactive) | > 100 µM (inactive) | > 100 µM (inactive) | > 100 µM (inactive) | > 100 µM (inactive) | > 100 µM (inactive) | > 100 µM (inactive) | – | – |
| O=C1CCC(NC(=O)c2ccccc2)C(=O)N1 (stereo not given) | > 100 µM (inactive) | > 100 µM (inactive) | > 100 µM (inactive) | – | > 100 µM (inactive) | – | > 100 µM (inactive) | > 100 µM (inactive) | > 100 µM (inactive) | > 100 µM (inactive) | > 100 µM (inactive) | > 100 µM (inactive) | > 100 µM (inactive) | > 100 µM (inactive) | > 100 µM (inactive) | > 100 µM (inactive) | > 100 µM (inactive) | > 100 µM (inactive) | > 100 µM (inactive) | > 100 µM (inactive) |
| COc1ccc(Nc2nc(N)c(C(=O)c3cccs3)s2)cc1 | 8.49 µM (inactive) | 5.7 µM (inactive) | 5.56 µM (inactive) | 3.56 µM (inactive) | 16.9 µM (inactive) | 3.64 µM (inactive) | 2.99 µM (inactive) | 5.21 µM (inactive) | 5.86 µM (inactive) | 15.8 µM (inactive) | 5.92 µM (inactive) | 10.9 µM (inactive) | 2.8 µM (inactive) | 0.682 µM (active) | 15.8 µM (inactive) | 7.5 µM (inactive) | 9.31 µM (inactive) | – | 10.9 µM (inactive) | 20.6 µM (inactive) |
| CCOC(=O)C1C(=O)C=C(c2cc(C)ccc2O)CC1c1cccc(Cl)c1 (stereo not given) | 36.6 µM (inactive) | 19 µM (inactive) | 50.1 µM (inactive) | 25.8 µM (inactive) | 40.2 µM (inactive) | 12.9 µM (inactive) | 16.3 µM (inactive) | 19.5 µM (inactive) | 24.5 µM (inactive) | 43.7 µM (inactive) | 18.7 µM (inactive) | 23.9 µM (inactive) | 19.2 µM (inactive) | 5.21 µM (inactive) | 36.1 µM (inactive) | 18.5 µM (inactive) | 2.12 µM (inactive) | – | 16.7 µM (inactive) | 20 µM (inactive) |
| COc1cc(/C=C(\C#N)c2nc3ccccc3o2)ccc1O | 24.9 µM (inactive) | 17.8 µM (inactive) | 25.6 µM (inactive) | 19.6 µM (inactive) | 21 µM (inactive) | 35.4 µM (inactive) | 17.6 µM (inactive) | 10 µM (inactive) | 15.4 µM (inactive) | 22 µM (inactive) | 21 µM (inactive) | 17.6 µM (inactive) | 12.6 µM (inactive) | 24.2 µM (inactive) | 13.3 µM (inactive) | 12.3 µM (inactive) | 23.5 µM (inactive) | – | 18 µM (inactive) | 17.7 µM (inactive) |
| C=C1C(=O)O[C@H]2C1C[C@H](O)[C@@]1(C)OC1CC[C@@]1(C)O[C@H]21 (stereo not given in full) | 21 µM (inactive) | > 100 µM (inactive) | 34.5 µM (inactive) | – | 27.6 µM (inactive) | 4.28 µM (inactive) | 25.1 µM (inactive) | 15.4 µM (inactive) | – | 16.9 µM (inactive) | 6.65 µM (inactive) | > 100 µM (inactive) | 20.4 µM (inactive) | 17.8 µM (inactive) | 19.3 µM (inactive) | > 100 µM (inactive) | 18.1 µM (inactive) | 80.4 µM (inactive) | 26.5 µM (inactive) | 61.8 µM (inactive) |
| CCCCC[C@H]1CCCCCCCCCC(=O)OC2C(O[C@@H]3OC(C)[C@H](OC(=O)[C@@H](C)CC)C(O[C@@H]4OC(C)[C@H](O)C(O)[C@@H]4O)[C@@H]3OC(=O)[C@H](C)CC)[C@H](OC3C(O)[C@@H](O)C(C)O[C@H]3O1)OC(CO)[C@H]2O (stereo not given in full) | 17.4 µM (inactive) | 16.8 µM (inactive) | 16.2 µM (inactive) | 19 µM (inactive) | 18.2 µM (inactive) | 18.8 µM (inactive) | 20 µM (inactive) | 17.3 µM (inactive) | – | 16.7 µM (inactive) | 16.8 µM (inactive) | 18 µM (inactive) | 17.1 µM (inactive) | 16.7 µM (inactive) | 17 µM (inactive) | 17.9 µM (inactive) | 15.8 µM (inactive) | – | 16.4 µM (inactive) | 15.6 µM (inactive) |
| c1cc2c(s1)-c1sccc1C21OCCO1 | > 100 µM (inactive) | 69 µM (inactive) | > 100 µM (inactive) | > 100 µM (inactive) | > 100 µM (inactive) | > 100 µM (inactive) | > 100 µM (inactive) | 49.9 µM (inactive) | > 100 µM (inactive) | > 100 µM (inactive) | 81.7 µM (inactive) | > 100 µM (inactive) | 53.5 µM (inactive) | > 100 µM (inactive) | 17.3 µM (inactive) | > 100 µM (inactive) | 45.6 µM (inactive) | – | 60 µM (inactive) | – |
| CC(=O)OC(C)(C)CCC(=O)[C@](C)(O)[C@H]1[C@H](O)C[C@@]2(C)[C@@H]3CC=C4C(C)=C(OC5OC(CO)C(O)C(O)C5O)C(=O)C[C@@H]4[C@]3(C)C(=O)C[C@]12C (stereo not given in full) | > 100 µM (inactive) | > 100 µM (inactive) | > 100 µM (inactive) | – | > 100 µM (inactive) | > 100 µM (inactive) | > 100 µM (inactive) | > 100 µM (inactive) | > 100 µM (inactive) | > 100 µM (inactive) | – | > 100 µM (inactive) | > 100 µM (inactive) | > 100 µM (inactive) | > 100 µM (inactive) | > 100 µM (inactive) | > 100 µM (inactive) | > 100 µM (inactive) | > 100 µM (inactive) | > 100 µM (inactive) |
